Data published in patent US20240109903A1, “SUBSTITUTED HETEROCYCLES FOR TREATING CANCER” (Northwestern University, priority 2022, published 2024).
pIC50: −log10 of the molar value.

Columns and labels:
full NCI 60 cell panel = experiment: NCI 60 Cell One-dose screen; assay type: cell-based, human; settings: single high dose 10^−5 M, NCI 60 panel
Description: Compounds were submitted to the NCI 60 Cell screen and tested at a single high dose (10^−5 M) in the full NCI 60 cell panel (see the following reference for details of using NCI 60 human tumor cell lines for screening anticancer drugs: Shoemaker R H. The NCI60 human tumor cell line anticancer drug screen. Nature Rev Cancer 2006; 6: 813-23). The One-dose data is reported as a mean graph of the percent growth of treated cells. The number reported for the One-dose assay is growth relative to the no-drug control, and relative to the time zero number of cells. This allows detection of both growth inhibition (values between 0 and 100) and lethality (values less than 0). For example, a value of 100 means no growth inhibition. A value of 40 would mean 60% growth inhibition. A value of 0 means no net growth over the course of the experiment. A value of −40 would mean 40% lethality. A value of −100 means all cells are dead. FIGS. 1-8 show the mean graph of percent growth against the NCI-60 cell panel for NUCC-0226674, NUCC-0226679, NUCC-0226680, NUCC-0226683, NUCC-0226689, NUCC-0226694, NUCC-0226695, and NUCC-0226698.

HL-60(TB) = experiment: NCI 60 five-dose screen HL-60(TB); assay type: cell-based; settings: Homo sapiens, five-dose; for CC50: read-out: LC50 (the source's name) (converted)
MOLT-4 = experiment: NCI 60 five-dose screen MOLT-4; assay type: cell-based; settings: Homo sapiens, five-dose; for CC50: read-out: LC50 (the source's name)
RPMI-8226 = experiment: NCI 60 five-dose screen RPMI-8226; assay type: cell-based; settings: Homo sapiens, five-dose; for CC50: read-out: LC50 (the source's name)
SR = experiment: NCI 60 five-dose screen SR; assay type: cell-based, human; settings: five-dose; for GI50 / pIC50 / CC50: Homo sapiens; for CC50: read-out: LC50 (the source's name)
NCI-H226 = experiment: NCI 60 five-dose screen NCI-H226; assay type: cell-based; settings: Homo sapiens, five-dose; for CC50: read-out: LC50 (the source's name) (converted)
NCI-H322M = experiment: NCI 60 five-dose screen NCI-H322M; assay type: cell-based; settings: Homo sapiens, five-dose; for CC50: read-out: LC50 (the source's name) (converted)
COLO 205 = experiment: NCI 60 five-dose screen COLO 205; assay type: cell-based; settings: Homo sapiens, five-dose; for CC50: read-out: LC50 (the source's name) (converted)
KM12 = experiment: NCI 60 five-dose screen KM12; assay type: cell-based; settings: Homo sapiens, five-dose; for CC50: read-out: LC50 (the source's name) (converted)
U251 = experiment: NCI 60 five-dose screen U251; assay type: cell-based; settings: Homo sapiens, U-251, five-dose; for CC50: read-out: LC50 (the source's name) (converted)
LOX IMVI = experiment: NCI 60 five-dose screen LOX IMVI; assay type: cell-based; settings: Homo sapiens, five-dose; for CC50: read-out: LC50 (the source's name) (converted)
MDA-MB-435 = experiment: NCI 60 five-dose screen MDA-MB-435; assay type: cell-based; settings: Homo sapiens, five-dose; for CC50: read-out: LC50 (the source's name) (converted)
SK-MEL-28 = experiment: NCI 60 five-dose screen SK-MEL-28; assay type: cell-based; settings: Homo sapiens, five-dose; for CC50: read-out: LC50 (the source's name) (converted)
SK-MEL-5 = experiment: NCI 60 five-dose screen SK-MEL-5; assay type: cell-based; settings: Homo sapiens, five-dose; for CC50: read-out: LC50 (the source's name) (converted)
UACC-62 = experiment: NCI 60 five-dose screen UACC-62; assay type: cell-based; settings: Homo sapiens, five-dose; for CC50: read-out: LC50 (the source's name) (converted)
OVCAR-5 = experiment: NCI 60 five-dose screen OVCAR-5; assay type: cell-based; settings: Homo sapiens, five-dose; for CC50: read-out: LC50 (the source's name) (converted)
OVCAR-8 = experiment: NCI 60 five-dose screen OVCAR-8; assay type: cell-based; settings: Homo sapiens, five-dose; for CC50: read-out: LC50 (the source's name) (converted)
786-0 = experiment: NCI 60 five-dose screen 786-0; assay type: cell-based; settings: Homo sapiens, five-dose; for CC50: read-out: LC50 (the source's name) (converted)
RXF 393 = experiment: NCI 60 five-dose screen RXF 393; assay type: cell-based; settings: Homo sapiens, five-dose; for CC50: read-out: LC50 (the source's name) (converted)
SN12C = experiment: NCI 60 five-dose screen SN12C; assay type: cell-based; settings: Homo sapiens, five-dose; for CC50: read-out: LC50 (the source's name) (converted)
TK-10 = experiment: NCI 60 five-dose screen TK-10; assay type: cell-based; settings: Homo sapiens, five-dose; for CC50: read-out: LC50 (the source's name) (converted)
MDA-MB-231/ATCC = experiment: NCI 60 five-dose screen MDA-MB-231/ATCC; assay type: cell-based; settings: Homo sapiens, five-dose; for CC50: read-out: LC50 (the source's name) (converted)
BT-549 = experiment: NCI 60 five-dose screen BT-549; assay type: cell-based; settings: Homo sapiens, five-dose; for CC50: read-out: LC50 (the source's name) (converted)
MDA-MB-468 = experiment: NCI 60 five-dose screen MDA-MB-468; assay type: cell-based; settings: Homo sapiens, five-dose; for CC50: read-out: LC50 (the source's name) (converted)

## FC(F)(F)CN1CCN(CCn2c(C(F)(F)F)cc3c(Cl)ncnc32)CC1 [NUCC-0226683]
Full NCI 60 cell panel
  growth inhibition in the One-Dose Screen: significant growth inhibition
HL-60(TB)
  GI50: 2.75 µM
  pIC50: 5.24
  IC (TGI): 8.13 µM
  CC50: ≥ 100 µM
MOLT-4
  GI50: 2.4 µM
  pIC50: 5.38
  IC (TGI): 9.12 µM
  CC50: ≥ 100 µM
RPMI-8226
  GI50: 23.4 µM
  pIC50: 4.40
  IC (TGI): 77.6 µM
  CC50: ≥ 100 µM
SR
  GI50: 2.14 µM
  pIC50: 5.45
  CC50: ≥ 100 µM
NCI-H226
  GI50: 17.4 µM
  pIC50: 4.00
  IC (TGI): 72.4 µM
  CC50: ≥ 100 µM
NCI-H322M
  GI50: 5.5 µM
  pIC50: 4.80
  IC (TGI): 19.1 µM
  CC50: 44.7 µM
COLO 205
  GI50: 18.6 µM
  pIC50: 4.47
  IC (TGI): 45.7 µM
  CC50: ≥ 100 µM
KM12
  GI50: 17.8 µM
  pIC50: 4.52
  IC (TGI): 39.8 µM
  CC50: 89.1 µM
U251
  GI50: 2.4 µM
  pIC50: 5.44
  IC (TGI): 6.46 µM
  CC50: 24 µM
LOX IMVI
  GI50: 1.66 µM
  pIC50: 5.53
  IC (TGI): 3.09 µM
  CC50: 5.75 µM
MDA-MB-435
  GI50: 5.5 µM
  pIC50: 5.04
  IC (TGI): 19.5 µM
  CC50: 51.3 µM
SK-MEL-28
  GI50: 8.13 µM
  pIC50: 4.78
  IC (TGI): 37.2 µM
  CC50: ≥ 100 µM
SK-MEL-5
  GI50: 3.72 µM
  pIC50: 5.21
  IC (TGI): 13.8 µM
  CC50: 37.2 µM
UACC-62
  GI50: 4.68 µM
  pIC50: 5.00
  IC (TGI): 18.2 µM
  CC50: 47.9 µM
OVCAR-5
  GI50: 100 µM
  pIC50: 4.00
  IC (TGI): 100 µM
  CC50: ≥ 100 µM
OVCAR-8
  GI50: 3.24 µM
  pIC50: 5.35
  IC (TGI): 11.7 µM
  CC50: 40.7 µM
786-0
  GI50: 22.4 µM
  pIC50: 4.43
  IC (TGI): 60.3 µM
  CC50: ≥ 100 µM
RXF 393
  GI50: 11 µM
  pIC50: 4.51
  IC (TGI): 28.2 µM
  CC50: 72.4 µM
SN12C
  GI50: 7.76 µM
  pIC50: 4.86
  IC (TGI): 22.9 µM
  CC50: 60.3 µM
TK-10
  GI50: 35.5 µM
  pIC50: 4.00
  IC (TGI): 100 µM
  CC50: ≥ 100 µM
MDA-MB-231/ATCC
  GI50: 1.78 µM
  pIC50: 5.47
  IC (TGI): 4.27 µM
  CC50: 11.5 µM
BT-549
  GI50: 12.9 µM
  pIC50: 4.57
  IC (TGI): 26.9 µM
  CC50: 55 µM
MDA-MB-468
  GI50: 2.19 µM
  pIC50: 5.22
  IC (TGI): 4.9 µM
  CC50: 14.1 µM

## OC1CCC(Cn2c(C(F)(F)F)cc3c(Cl)ncnc32)CC1 (centres unmarked) [NUCC-0226689]
Full NCI 60 cell panel
  growth inhibition in the One-Dose Screen: significant growth inhibition
HL-60(TB)
  GI50: 2.63 µM
  pIC50: 5.30
  IC (TGI): 8.91 µM
  CC50: ≥ 100 µM
MOLT-4
  GI50: 2.75 µM
  pIC50: 5.35
  IC (TGI): 8.13 µM
  CC50: ≥ 100 µM
RPMI-8226
  GI50: 33.9 µM
  pIC50: 4.23
  IC (TGI): 100 µM
  CC50: ≥ 100 µM
SR
  GI50: 2.14 µM
  pIC50: 5.45
  CC50: ≥ 100 µM
  TGI: 5.17 −log[M]
NCI-H226
  GI50: 23.4 µM
  pIC50: 4.00
  IC (TGI): 79.4 µM
  CC50: ≥ 100 µM
NCI-H322M
  GI50: 3.8 µM
  pIC50: 4.99
  IC (TGI): 13.5 µM
  CC50: 38 µM
COLO 205
  GI50: 24.5 µM
  pIC50: 4.34
  IC (TGI): 100 µM
  CC50: ≥ 100 µM
KM12
  GI50: 26.3 µM
  pIC50: 4.43
  IC (TGI): 93.3 µM
  CC50: ≥ 100 µM
U251
  GI50: 3.24 µM
  pIC50: 5.37
  IC (TGI): 12.9 µM
  CC50: 44.7 µM
LOX IMVI
  GI50: 1.7 µM
  pIC50: 5.52
  IC (TGI): 3.16 µM
  CC50: 5.75 µM
MDA-MB-435
  GI50: 12 µM
  pIC50: 4.70
  IC (TGI): 25.7 µM
  CC50: 55 µM
SK-MEL-28
  GI50: 9.33 µM
  pIC50: 4.72
  IC (TGI): 30.9 µM
  CC50: ≥ 100 µM
SK-MEL-5
  GI50: 4.79 µM
  pIC50: 5.08
  IC (TGI): 16.6 µM
  CC50: 42.7 µM
UACC-62
  GI50: 5.37 µM
  pIC50: 4.94
  IC (TGI): 19.5 µM
  CC50: 51.3 µM
OVCAR-5
  GI50: 100 µM
  pIC50: 4.00
  IC (TGI): 100 µM
  CC50: ≥ 100 µM
OVCAR-8
  GI50: 2.29 µM
  pIC50: 5.44
  IC (TGI): 5.37 µM
  CC50: 30.9 µM
786-0
  GI50: 32.4 µM
  pIC50: 4.31
  IC (TGI): 100 µM
  CC50: ≥ 100 µM
RXF 393
  GI50: 12.6 µM
  pIC50: 4.43
  IC (TGI): 34.7 µM
  CC50: 97.7 µM
SN12C
  GI50: 5.37 µM
  pIC50: 5.00
  IC (TGI): 20 µM
  CC50: 53.7 µM
TK-10
  GI50: 100 µM
  pIC50: 4.00
  IC (TGI): 100 µM
  CC50: ≥ 100 µM
MDA-MB-231/ATCC
  GI50: 4.47 µM
  pIC50: 4.96
  IC (TGI): 20 µM
  CC50: 69.2 µM
BT-549
  GI50: 13.2 µM
  pIC50: 4.55
  IC (TGI): 28.2 µM
  CC50: 58.9 µM
MDA-MB-468
  GI50: 2.14 µM
  pIC50: 5.15
  IC (TGI): 5.62 µM
  CC50: 22.4 µM
